Earlier results as cited in patent publication US20060198830A1, “Ubiquinone composition and a container for its convenient transport and storage” (priority 2005, published 2006).

Settings: administration of 300-1200 mg/day of CoQ10

- plasma CoQ10 concentrations: 3 to 4 µg/mL
Structure (SMILES): COC1=C(OC)C(=O)C(C/C=C(\C)CC/C=C(\C)CC/C=C(\C)CC/C=C(\C)CC/C=C(\C)CC/C=C(\C)CC/C=C(\C)CC/C=C(\C)CC/C=C(\C)CCC=C(C)C)=C(C)C1=O [CoQ10, Ubiquinone]
